From ChEMBL document CHEMBL3792292, “Development of a potent and selective FLT3 kinase inhibitor by systematic expansion of a non-selective fragment-screening hit” (Bioorg Med Chem Lett, 2016)

Biological target: T1, Receptor-type tyrosine-protein kinase FLT3 (Homo sapiens, UniProt P36888)
T1 sequence (P36888 whole entry): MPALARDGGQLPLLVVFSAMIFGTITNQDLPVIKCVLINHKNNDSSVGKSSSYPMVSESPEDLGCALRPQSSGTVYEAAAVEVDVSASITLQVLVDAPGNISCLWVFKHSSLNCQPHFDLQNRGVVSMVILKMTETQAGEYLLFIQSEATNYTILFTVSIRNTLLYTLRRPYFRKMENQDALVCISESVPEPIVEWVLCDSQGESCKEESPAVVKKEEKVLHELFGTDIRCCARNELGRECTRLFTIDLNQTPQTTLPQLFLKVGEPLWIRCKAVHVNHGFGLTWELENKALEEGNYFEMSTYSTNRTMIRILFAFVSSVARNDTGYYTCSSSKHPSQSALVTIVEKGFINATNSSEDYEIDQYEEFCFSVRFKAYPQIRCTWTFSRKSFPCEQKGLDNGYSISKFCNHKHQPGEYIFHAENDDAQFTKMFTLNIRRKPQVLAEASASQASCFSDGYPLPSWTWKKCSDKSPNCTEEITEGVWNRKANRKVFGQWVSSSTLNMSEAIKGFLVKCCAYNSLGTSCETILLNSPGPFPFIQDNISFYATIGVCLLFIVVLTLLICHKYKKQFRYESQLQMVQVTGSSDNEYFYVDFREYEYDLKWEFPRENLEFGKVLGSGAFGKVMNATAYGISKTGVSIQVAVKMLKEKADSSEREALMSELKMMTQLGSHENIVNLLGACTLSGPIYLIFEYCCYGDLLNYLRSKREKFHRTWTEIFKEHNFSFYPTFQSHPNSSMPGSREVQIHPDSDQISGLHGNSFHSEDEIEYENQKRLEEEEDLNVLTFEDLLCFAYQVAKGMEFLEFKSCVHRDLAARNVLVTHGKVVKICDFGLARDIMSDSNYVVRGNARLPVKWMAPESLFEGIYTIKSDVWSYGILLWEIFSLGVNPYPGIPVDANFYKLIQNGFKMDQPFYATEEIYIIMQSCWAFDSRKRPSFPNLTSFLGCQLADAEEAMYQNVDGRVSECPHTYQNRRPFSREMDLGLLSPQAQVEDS
Experiment: Inhibition of human N-terminal GST-tagged FLT3 cytoplasmic domain (564 to 993 residues) expressed in baculovirus expression system using 5-FAM-peptide 2 as substrate after 2 hrs by electrophoretic mobility shift assay in presence of ATP

IC50 | Structure (SMILES)
> 2000 nM | COc1ccccc1NC(=O)c1n[nH]c2ccccc12
> 2000 nM | O=C(Nc1ccccc1)c1c[nH]c2ccccc12
> 2000 nM | O=C(Nc1ccc(N2CCN(c3ccccc3)CC2)cc1)c1n[nH]c2ccccc12
> 2000 nM | COC(=O)c1ccccc1NC(=O)c1n[nH]c2ccccc12
> 2000 nM | Cc1ccccc1NC(=O)c1n[nH]c2ccccc12
> 2000 nM | COC(=O)c1cccc(NC(=O)c2n[nH]c3ccccc23)c1
352 nM | COc1ccc(NC(=O)c2n[nH]c3ccccc23)cc1
> 2000 nM | CN(C(=O)c1n[nH]c2ccccc12)c1ccccc1

Structure (SMILES) | IC50
Cn1nc(C(=O)Nc2ccccc2)c2ccccc21 | > 2000 nM
